Experimental data: ChEMBL document CHEMBL5352492, “Application of deep generative model for design of Pyrrolo[2,3-d] pyrimidine derivatives as new selective TANK binding kinase 1 (TBK1) inhibitors” (Eur J Med Chem, 2023)

How the values were obtained:
[1] = molecular target: Receptor-type tyrosine-protein kinase FLT3 (Homo sapiens) (UniProt P36888); assay: Inhibition of Flt-3 (unknown origin) at 100 to 1000 nM relative to control; details: dose 100-1000 nM
[2] = molecular target: T1, Serine/threonine-protein kinase TBK1 (Homo sapiens) (UniProt Q9UHD2); assay: Inhibition of TBK1 (unknown origin) incubated at 100 nM for 1 hr in presence of ATP by FRET based Z'-Lyte assay relative to control
T1 sequence (whole entry): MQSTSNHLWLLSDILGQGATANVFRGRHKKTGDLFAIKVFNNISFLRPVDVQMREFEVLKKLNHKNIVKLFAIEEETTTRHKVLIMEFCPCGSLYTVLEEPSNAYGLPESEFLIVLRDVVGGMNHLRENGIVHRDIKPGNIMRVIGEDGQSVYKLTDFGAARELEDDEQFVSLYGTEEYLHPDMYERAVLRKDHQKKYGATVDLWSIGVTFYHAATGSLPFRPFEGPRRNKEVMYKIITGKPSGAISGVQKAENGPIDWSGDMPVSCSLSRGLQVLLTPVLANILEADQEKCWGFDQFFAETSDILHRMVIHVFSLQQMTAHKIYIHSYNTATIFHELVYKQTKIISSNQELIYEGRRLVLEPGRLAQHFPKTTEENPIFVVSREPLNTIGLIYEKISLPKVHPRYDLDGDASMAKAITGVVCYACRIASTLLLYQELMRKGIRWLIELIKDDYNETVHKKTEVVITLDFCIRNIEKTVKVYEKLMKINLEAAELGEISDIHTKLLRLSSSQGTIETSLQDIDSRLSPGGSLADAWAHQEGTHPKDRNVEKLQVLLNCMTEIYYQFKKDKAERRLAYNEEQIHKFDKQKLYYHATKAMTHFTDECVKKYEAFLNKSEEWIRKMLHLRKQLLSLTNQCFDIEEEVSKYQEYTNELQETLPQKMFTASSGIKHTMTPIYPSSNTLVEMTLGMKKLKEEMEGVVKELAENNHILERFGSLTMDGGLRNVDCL

[3] = molecular target: Mast/stem cell growth factor receptor Kit (Homo sapiens) (UniProt P10721); assay: Inhibition of KIT (unknown origin) at 100 to 1000 nM relative to control; details: dose 100-1000 nM
[4] = molecular target: Insulin-like growth factor 1 receptor (Homo sapiens) (UniProt P08069); assay: Inhibition of IGF1R (unknown origin) at 100 to 1000 nM relative to control; details: dose 100-1000 nM
[5] = molecular target: Vascular endothelial growth factor receptor 1 (Homo sapiens) (UniProt P17948); assay: Inhibition of VEGFR1 (unknown origin) at 100 to 1000 nM relative to control; details: dose 100-1000 nM
THP1-Blue ISG [6] = assay: Inhibition of LPS-induced ifn-beta in human THP1-Blue ISG cells treated for 2 hrs RTq-PCR analysis; assay type: functional, cell-based; details: dose 0.1-1 µM
[7] = molecular target: Tyrosine-protein kinase BTK (Homo sapiens) (UniProt Q06187); assay: Inhibition of BTK (unknown origin) at 100 to 1000 nM relative to control; details: dose 100-1000 nM
[8] = molecular target: Tyrosine-protein kinase ITK/TSK (Homo sapiens) (UniProt Q08881); assay: Inhibition of ITK (unknown origin) at 100 to 1000 nM relative to control; details: dose 100-1000 nM
[9] = molecular target: Proto-oncogene tyrosine-protein kinase Src (Homo sapiens) (UniProt P12931); assay: Inhibition of Src (unknown origin) at 100 to 1000 nM relative to control; details: dose 100-1000 nM
THP1-Blue ISG [10] = assay: Inhibition of LPS-induced cxcl10 in human THP1-Blue ISG cells treated for 2 hrs RTq-PCR analysis; assay type: functional, cell-based; details: dose 0.1-1 µM
[11] = molecular target: Receptor tyrosine-protein kinase erbB-2 (Homo sapiens) (UniProt P04626); assay: Inhibition of ErbB2 (unknown origin) at 100 to 1000 nM relative to control; details: dose 100-1000 nM
[12] = molecular target: Insulin receptor (Homo sapiens) (UniProt P06213); assay: Inhibition of IR (unknown origin) at 100 to 1000 nM relative to control; details: dose 100-1000 nM
[13] = molecular target: Focal adhesion kinase 1 (Homo sapiens) (UniProt Q05397); assay: Inhibition of FAK (unknown origin) at 100 to 1000 nM relative to control; details: dose 100-1000 nM
[14] = molecular target: Platelet-derived growth factor receptor beta (Homo sapiens) (UniProt P09619); assay: Inhibition of PDGFR-beta (unknown origin) at 100 to 1000 nM relative to control; details: dose 100-1000 nM
[15] = molecular target: Fibroblast growth factor receptor 2 (Homo sapiens) (UniProt P21802); assay: Inhibition of FGFR2 (unknown origin) at 100 to 1000 nM relative to control; details: dose 100-1000 nM
[16] = molecular target: Macrophage-stimulating protein receptor (Homo sapiens) (UniProt Q04912); assay: Inhibition of RON (unknown origin) at 100 to 1000 nM relative to control; details: dose 100-1000 nM
[17] = molecular target: Proto-oncogene tyrosine-protein kinase receptor Ret (Homo sapiens) (UniProt P07949); assay: Inhibition of RET (unknown origin) at 100 to 1000 nM relative to control; details: dose 100-1000 nM
[18] = molecular target: Ephrin type-A receptor 2 (Homo sapiens) (UniProt P29317); assay: Inhibition of EPH-A2 (unknown origin) at 100 to 1000 nM relative to control; details: dose 100-1000 nM
[19] = Antiproliferative activity against LLC cells measured after 72 hrs by SRB staining method; assay type: functional, cell-based; details: Mus musculus, Lewis lung carcinoma
[20] = molecular target: Macrophage colony-stimulating factor 1 receptor (Homo sapiens) (UniProt P07333); assay: Inhibition of CSF1R (unknown origin) at 100 to 1000 nM relative to control; details: dose 100-1000 nM
[21] = molecular target: Fibroblast growth factor receptor 3 (Homo sapiens) (UniProt P22607); assay: Inhibition of FGFR3 (unknown origin) at 100 to 1000 nM relative to control; details: dose 100-1000 nM
[22] = molecular target: Fibroblast growth factor receptor 4 (Homo sapiens) (UniProt P22455); assay: Inhibition of FGFR4 (unknown origin) at 100 to 1000 nM relative to control; details: dose 100-1000 nM
[23] = molecular target: T1, Serine/threonine-protein kinase TBK1 (Homo sapiens); assay: Inhibition of TBK1 (unknown origin) incubated at 1000 nM for 1 hr in presence of ATP by FRET based Z'-Lyte assay relative to control
[24] = molecular target: Receptor tyrosine-protein kinase erbB-4 (Homo sapiens) (UniProt Q15303); assay: Inhibition of ErbB4 (unknown origin) at 100 to 1000 nM relative to control; details: dose 100-1000 nM
[25] = molecular target: Activated CDC42 kinase 1 (Homo sapiens) (UniProt Q07912); assay: Inhibition of ACK1 (unknown origin) at 100 to 1000 nM relative to control; details: dose 100-1000 nM
[26] = molecular target: T2, Serine/threonine-protein kinase TBK1 (Homo sapiens, UniProt Q9UHD2); assay: Inhibition of TBK1 in human THP1-Blue ISG cells by measuring SEAP gene expression incubated for 24 hrs by reporter gene assay; assay type: cell-based
T2 sequence (Q9UHD2 whole entry): T1 sequence (whole entry)

[27] = molecular target: Vascular endothelial growth factor receptor 2 (Homo sapiens) (UniProt P35968); assay: Inhibition of VEGFR2 (unknown origin) at 100 to 1000 nM relative to control; details: dose 100-1000 nM
RAW264.7 [28] = assay: Inhibition of LPS-induced cxcl10 in mouse RAW264.7 cells treated for 2 hrs RTq-PCR analysis; assay type: functional, cell-based; details: dose 0.1-1 µM
[29] = molecular target: T2, Serine/threonine-protein kinase TBK1; assay: Inhibition of TBK1 (unknown origin) incubated for 1 hr in presence of ATP by FRET based Z'-Lyte assay
RAW264.7 [30] = assay: Inhibition of LPS-induced ifn-beta in mouse RAW264.7 cells treated for 2 hrs RTq-PCR analysis; assay type: functional, cell-based; details: dose 0.1-1 µM
[31] = molecular target: T1, Serine/threonine-protein kinase TBK1 (Homo sapiens); assay: Inhibition of TBK1 phosphorylation (unknown origin) of downstream signalling effector protein S6K at 1 to 20 uM after 24 hrs by Western blotting analysis; details: dose 1-20 µM
[32] = molecular target: Platelet-derived growth factor receptor alpha (Homo sapiens) (UniProt P16234); assay: Inhibition of PDGFR-alpha (unknown origin) at 100 to 1000 nM relative to control; details: dose 100-1000 nM
[33] = molecular target: Ephrin type-B receptor 2 (Homo sapiens) (UniProt P29323); assay: Inhibition of EPH-B2 (unknown origin) at 100 to 1000 nM relative to control; details: dose 100-1000 nM
A549 = assay: Antiproliferative activity against human A549 cells measured after 72 hrs by SRB staining method; assay type: functional, cell-based; details: A549, 72 h
[34] = molecular target: T1, Serine/threonine-protein kinase TBK1 (Homo sapiens); assay: Inhibition of TBK1 (unknown origin) incubated at 10 nM for 1 hr in presence of ATP by FRET based Z'-Lyte assay relative to control
[35] = molecular target: Epidermal growth factor receptor (Homo sapiens) (UniProt P00533); assay: Inhibition of EGFR (unknown origin) at 100 to 1000 nM relative to control; details: dose 100-1000 nM
[36] = molecular target: Fibroblast growth factor receptor 1 (Homo sapiens) (UniProt P11362); assay: Inhibition of FGFR1 (unknown origin) at 100 to 1000 nM relative to control; details: dose 100-1000 nM
[37] = molecular target: Vascular endothelial growth factor receptor 3 (Homo sapiens) (UniProt P35916); assay: Inhibition of VEGFR3 (unknown origin) at 100 to 1000 nM relative to control; details: dose 100-1000 nM
[38] = molecular target: Tyrosine-protein kinase ABL1 (Homo sapiens) (UniProt P00519); assay: Inhibition of Abl (unknown origin) at 100 to 1000 nM relative to control; details: dose 100-1000 nM

Vascular endothelial growth factor receptor 3 (Homo sapiens), sequence (P35916 whole entry): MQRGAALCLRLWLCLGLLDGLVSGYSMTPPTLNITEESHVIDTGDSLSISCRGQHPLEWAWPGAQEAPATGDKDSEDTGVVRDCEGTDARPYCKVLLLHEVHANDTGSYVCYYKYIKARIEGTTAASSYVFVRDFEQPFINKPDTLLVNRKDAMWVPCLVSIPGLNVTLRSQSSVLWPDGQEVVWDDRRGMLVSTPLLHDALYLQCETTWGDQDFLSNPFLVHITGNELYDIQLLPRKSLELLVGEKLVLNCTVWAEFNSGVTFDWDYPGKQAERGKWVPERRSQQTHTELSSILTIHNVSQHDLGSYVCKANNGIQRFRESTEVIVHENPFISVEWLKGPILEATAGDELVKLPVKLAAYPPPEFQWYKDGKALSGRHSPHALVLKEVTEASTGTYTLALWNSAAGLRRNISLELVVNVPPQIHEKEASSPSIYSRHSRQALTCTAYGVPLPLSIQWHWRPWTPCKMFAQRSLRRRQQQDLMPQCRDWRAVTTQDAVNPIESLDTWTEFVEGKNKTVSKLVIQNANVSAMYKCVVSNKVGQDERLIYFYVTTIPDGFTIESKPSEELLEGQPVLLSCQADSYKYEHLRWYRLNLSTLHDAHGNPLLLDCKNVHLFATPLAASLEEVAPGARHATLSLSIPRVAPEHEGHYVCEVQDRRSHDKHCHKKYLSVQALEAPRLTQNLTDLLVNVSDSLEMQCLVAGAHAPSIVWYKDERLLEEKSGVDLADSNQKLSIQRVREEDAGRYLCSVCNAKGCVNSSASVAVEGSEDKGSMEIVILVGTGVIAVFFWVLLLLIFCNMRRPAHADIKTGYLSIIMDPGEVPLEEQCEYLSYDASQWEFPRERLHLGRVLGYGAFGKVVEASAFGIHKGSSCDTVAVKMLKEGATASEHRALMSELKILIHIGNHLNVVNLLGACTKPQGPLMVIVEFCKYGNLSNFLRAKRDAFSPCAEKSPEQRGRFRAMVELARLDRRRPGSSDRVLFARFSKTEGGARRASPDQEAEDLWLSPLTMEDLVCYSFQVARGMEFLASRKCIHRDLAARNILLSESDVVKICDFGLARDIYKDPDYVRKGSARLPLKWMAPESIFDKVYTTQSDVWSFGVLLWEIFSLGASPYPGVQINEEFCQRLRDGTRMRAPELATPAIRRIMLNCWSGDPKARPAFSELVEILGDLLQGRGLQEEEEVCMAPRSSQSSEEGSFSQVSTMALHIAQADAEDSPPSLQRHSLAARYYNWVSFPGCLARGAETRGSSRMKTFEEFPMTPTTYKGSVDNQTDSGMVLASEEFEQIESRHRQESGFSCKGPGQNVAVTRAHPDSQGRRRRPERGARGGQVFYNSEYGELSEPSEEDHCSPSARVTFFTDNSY
Receptor tyrosine-protein kinase erbB-4 (Homo sapiens), sequence (Q15303 whole entry): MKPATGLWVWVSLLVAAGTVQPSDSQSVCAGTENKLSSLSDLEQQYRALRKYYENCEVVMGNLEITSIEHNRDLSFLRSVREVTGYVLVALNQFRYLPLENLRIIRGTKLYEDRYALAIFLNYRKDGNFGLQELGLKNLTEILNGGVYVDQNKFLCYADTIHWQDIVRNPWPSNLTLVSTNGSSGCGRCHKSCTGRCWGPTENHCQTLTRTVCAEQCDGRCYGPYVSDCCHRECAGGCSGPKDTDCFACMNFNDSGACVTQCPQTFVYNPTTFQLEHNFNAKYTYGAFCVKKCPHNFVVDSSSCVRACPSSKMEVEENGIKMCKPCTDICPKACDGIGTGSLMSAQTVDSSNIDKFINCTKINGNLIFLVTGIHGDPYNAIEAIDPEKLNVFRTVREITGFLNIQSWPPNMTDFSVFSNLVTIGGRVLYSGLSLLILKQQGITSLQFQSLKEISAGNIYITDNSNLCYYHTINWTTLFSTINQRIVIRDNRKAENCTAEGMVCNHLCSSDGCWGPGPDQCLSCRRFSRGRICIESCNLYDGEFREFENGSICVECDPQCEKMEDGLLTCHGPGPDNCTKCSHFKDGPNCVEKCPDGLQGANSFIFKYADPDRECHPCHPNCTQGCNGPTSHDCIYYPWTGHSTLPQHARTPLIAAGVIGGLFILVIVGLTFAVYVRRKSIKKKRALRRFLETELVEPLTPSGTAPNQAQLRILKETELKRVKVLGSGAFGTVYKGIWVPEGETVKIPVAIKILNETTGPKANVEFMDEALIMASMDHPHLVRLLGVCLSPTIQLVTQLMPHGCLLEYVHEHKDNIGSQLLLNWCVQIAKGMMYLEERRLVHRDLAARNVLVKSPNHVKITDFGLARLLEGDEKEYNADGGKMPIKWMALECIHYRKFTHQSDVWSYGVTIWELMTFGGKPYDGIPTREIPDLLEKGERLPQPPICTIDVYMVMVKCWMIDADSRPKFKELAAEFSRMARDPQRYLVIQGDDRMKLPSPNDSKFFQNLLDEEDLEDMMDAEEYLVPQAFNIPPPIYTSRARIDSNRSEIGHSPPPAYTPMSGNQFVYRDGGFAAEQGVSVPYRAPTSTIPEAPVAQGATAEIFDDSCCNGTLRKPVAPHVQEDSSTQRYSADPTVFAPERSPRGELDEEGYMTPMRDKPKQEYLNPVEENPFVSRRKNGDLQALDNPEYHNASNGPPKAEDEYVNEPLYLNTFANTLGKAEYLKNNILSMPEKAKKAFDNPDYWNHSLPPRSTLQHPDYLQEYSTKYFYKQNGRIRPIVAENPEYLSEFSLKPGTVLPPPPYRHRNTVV
Mast/stem cell growth factor receptor Kit (Homo sapiens), sequence (P10721 whole entry): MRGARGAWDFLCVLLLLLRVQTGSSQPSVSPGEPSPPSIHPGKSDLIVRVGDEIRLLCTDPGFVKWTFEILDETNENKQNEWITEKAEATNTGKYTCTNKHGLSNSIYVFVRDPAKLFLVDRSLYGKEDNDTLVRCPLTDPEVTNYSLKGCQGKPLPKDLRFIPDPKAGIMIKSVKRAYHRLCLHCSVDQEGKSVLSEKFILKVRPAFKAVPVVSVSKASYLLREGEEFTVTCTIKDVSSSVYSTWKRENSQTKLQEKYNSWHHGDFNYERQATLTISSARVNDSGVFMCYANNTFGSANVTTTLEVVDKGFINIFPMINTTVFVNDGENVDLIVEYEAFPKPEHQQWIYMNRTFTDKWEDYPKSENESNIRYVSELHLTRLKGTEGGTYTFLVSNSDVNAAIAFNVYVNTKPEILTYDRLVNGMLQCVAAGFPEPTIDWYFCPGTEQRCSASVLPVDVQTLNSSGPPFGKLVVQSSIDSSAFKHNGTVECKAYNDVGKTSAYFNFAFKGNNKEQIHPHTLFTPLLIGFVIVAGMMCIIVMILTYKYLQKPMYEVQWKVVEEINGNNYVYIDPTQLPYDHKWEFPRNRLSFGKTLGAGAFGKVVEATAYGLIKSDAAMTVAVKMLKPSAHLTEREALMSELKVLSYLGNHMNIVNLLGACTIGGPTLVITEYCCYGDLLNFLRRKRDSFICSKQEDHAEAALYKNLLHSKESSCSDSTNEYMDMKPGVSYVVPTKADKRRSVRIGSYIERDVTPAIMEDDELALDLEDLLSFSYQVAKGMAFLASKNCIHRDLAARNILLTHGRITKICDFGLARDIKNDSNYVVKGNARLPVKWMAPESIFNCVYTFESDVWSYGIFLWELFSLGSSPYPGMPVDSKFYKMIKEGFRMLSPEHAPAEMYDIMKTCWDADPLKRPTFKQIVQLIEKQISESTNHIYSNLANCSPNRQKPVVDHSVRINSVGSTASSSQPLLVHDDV
Receptor-type tyrosine-protein kinase FLT3 (Homo sapiens), sequence (P36888 whole entry): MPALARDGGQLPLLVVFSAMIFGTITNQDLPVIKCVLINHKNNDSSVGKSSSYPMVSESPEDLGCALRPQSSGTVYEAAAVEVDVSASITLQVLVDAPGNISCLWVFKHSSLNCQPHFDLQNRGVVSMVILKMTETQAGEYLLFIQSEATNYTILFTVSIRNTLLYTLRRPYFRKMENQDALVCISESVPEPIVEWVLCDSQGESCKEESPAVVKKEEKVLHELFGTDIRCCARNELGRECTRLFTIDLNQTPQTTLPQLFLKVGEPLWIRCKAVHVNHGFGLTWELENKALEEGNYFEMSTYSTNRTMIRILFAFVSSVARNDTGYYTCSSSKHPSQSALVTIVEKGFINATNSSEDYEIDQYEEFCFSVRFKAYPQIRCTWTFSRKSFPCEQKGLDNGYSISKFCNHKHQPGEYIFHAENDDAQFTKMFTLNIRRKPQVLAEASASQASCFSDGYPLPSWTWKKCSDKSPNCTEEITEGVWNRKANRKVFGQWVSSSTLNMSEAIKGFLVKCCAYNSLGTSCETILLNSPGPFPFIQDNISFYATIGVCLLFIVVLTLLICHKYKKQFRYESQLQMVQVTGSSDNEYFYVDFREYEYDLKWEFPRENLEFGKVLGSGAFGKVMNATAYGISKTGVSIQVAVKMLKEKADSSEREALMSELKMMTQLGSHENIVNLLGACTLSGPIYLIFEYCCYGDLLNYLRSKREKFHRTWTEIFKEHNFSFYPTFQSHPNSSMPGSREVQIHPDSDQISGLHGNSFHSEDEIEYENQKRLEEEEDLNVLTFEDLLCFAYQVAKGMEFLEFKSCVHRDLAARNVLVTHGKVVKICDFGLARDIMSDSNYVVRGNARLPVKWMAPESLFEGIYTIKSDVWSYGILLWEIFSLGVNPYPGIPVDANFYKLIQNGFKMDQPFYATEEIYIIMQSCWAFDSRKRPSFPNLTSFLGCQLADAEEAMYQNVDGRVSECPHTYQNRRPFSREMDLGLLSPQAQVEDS

Compound: CC(=O)N1CCN(Cc2cccc(Nc3ncc4ccn(CCCNC(=O)C5CCC5)c4n3)c2)CC1
- inhibition [1]: < 35%
- inhibition [2]: 66.2%
- inhibition [3]: < 35%
- inhibition [4]: < 35%
- inhibition [5]: < 35%
- inhibition (THP1-Blue ISG [6]): Dose-Dependent Effect
- inhibition [7]: < 35%
- inhibition [8]: < 35%
- inhibition [9]: < 35%
- inhibition (THP1-Blue ISG [10]): Dose-Dependent Effect
- inhibition [11]: < 35%
- inhibition [12]: < 35%
- inhibition [13]: < 35%
- inhibition [14]: < 35%
- inhibition [15]: < 35%
- inhibition [16]: < 35%
- inhibition [17]: < 35%
- inhibition [18]: < 35%
- IC50 [19]: 9400 nM
- inhibition [20]: < 35%
- inhibition [21]: < 35%
- inhibition [22]: < 35%
- inhibition [23]: 89%
- inhibition [24]: < 35%
- inhibition [25]: < 35%
- IC50 [26]: 566 nM
- inhibition [27]: < 35%
- inhibition (RAW264.7 [28]): Dose-Dependent Effect
- IC50 [29]: 22.4 nM
- inhibition (RAW264.7 [30]): Dose-Dependent Effect
- inhibition [31]: Dose-Dependent Effect
- inhibition [32]: < 35%
- inhibition [33]: < 35%
- IC50 (A549): 17600 nM
- inhibition [34]: 56.7%
- inhibition [35]: < 35%
- inhibition [36]: < 35%
- inhibition [37]: < 35%
- inhibition [38]: < 35%

Compound: O=C(NCCCn1ccc2cnc(Nc3cccc(CN4CCOCC4)c3)nc21)C1CCC1
- inhibition [2]: 69.7%
- inhibition [23]: 92.1%
- IC50 [29]: 66.7 nM
- inhibition [34]: 23.3%

Compound: O=C(NCCCn1cc(C2CC2)c2cnc(Nc3cccc(CN4CCOCC4)c3)nc21)C1CCC1
- inhibition [2]: < 0%
- inhibition [23]: < 0%
- inhibition [34]: < 0%

Compound: Cc1cc(=O)n(CCCNC(=O)C2CCC2)c2nc(Nc3cccc(CN4CCOCC4)c3)ncc12
- inhibition [2]: < 0%
- inhibition [23]: < 0%
- inhibition [34]: < 0%

Compound: COCCN(C)Cc1cccc(Nc2ncc3ccn(CCCNC(=O)C4CCC4)c3n2)c1
- inhibition [2]: 68.9%
- inhibition [23]: 91.8%
- IC50 [29]: 35.7 nM
- inhibition [34]: 23%
